Results: PMC11990383, “Structure Determination of Tegoprazan((S)-4-((5,7-difluorochroman-4-yl)oxy)-N,N,2-trimethyl-1H-benzo[d]imidazole-6-formamide) Polymorphs A and B by Laboratory X-Ray Powder Diffraction” (Molecules, 2025)
In brackets after ≈: the same amount, converted by molar mass. Where two headings read alike, the source gives them in different places.

What was measured:
[1] = Equilibrium solubility in water, potentiometric (pH-metric) CheqSol method; type: physicochemical; conditions: for solubility: thermodynamic from solid, read-out: equilibrium concentration (solubility, S)
Method: Solubility (S) measurements were conducted in water using the CheqSol system at five temperatures: 15 °C, 25 °C, 35 °C, 45 °C, and 55 °C. However, due to the hydrolytic instability of Tegoprazan at elevated temperatures and the pH-dependent nature of the CheqSol assay, reliable measurements could only be obtained at 15 °C and 25 °C. Based on the equilibrium solubility values at these two temperatures, the enthalpy of solution (ΔHsol) was estimated for each polymorph using van’t Hoff plots of ln(S) versus 1/T.
Solubility measurements were performed using the potentiometric (pH-metric) method with the CheqSol system (T3, Sirius Analytical Instruments Ltd., Portsmouth, UK). Unlike pKa determinations, solubility assays require relatively high sample concentrations to ensure saturation across a broad pH range (typically, pH 2 to 12). In this method, the solution is intentionally brought into a supersaturated state to establish “crossing points,” from which the intrinsic (equilibrium) solubility is calculated based on the concentration of the neutral species predominating at specific pH levels. The high initial concentration of the sample promotes supersaturation, leading to precipitation at pH values corresponding to the compound’s pKa. This onset of precipitation reflects the kinetic solubility, which can be characterized by various physicochemical parameters, including the pKa value, saturated pH, sample concentration, temperature, and crystallinity. This study aimed to investigate the temperature dependence of solubility for Polymorphs A and B. Measurements were conducted at five temperatures: 15 °C, 25 °C, 35 °C, 45 °C, and 55 °C.

[2] = Stability of polymorphs under accelerated conditions, followed by DSC and XRD; type: physicochemical; conditions: 40 ± 2 °C, relative humidity 75 ± 5 %, 8-week period; changes seen in the eighth week
Method: As a case in point, the stability of the two Tegoprazan polymorphs was evaluated under accelerated conditions (temperature: 40 ± 2 °C, relative humidity: 75 ± 5 HR%) over an 8-week period, with observations for any significant changes conducted using DSC (Differential Scanning Calorimetry) and XRD (X-ray diffraction). […] Therefore, it is essential to elucidate the details of this phenomenon. For quantitative phase analysis and similar studies, knowledge of the crystal structure is crucial. However, the crystal structures of Polymorphs A and B remain unresolved. In response to this need, we explored a practical approach to crystal structure analysis by utilizing readily available powder samples, laboratory-scale XRD instruments, and cost-efficient Rietveld refinement software specifically EXPO2014 (expo version 1.22.11). The known method of SDPD (Structure Determination from Powder Diffraction) was considered as one potential solution to address these challenges. While X-ray diffraction often utilizes synchrotron radiation or other advanced accelerator-based facilities, the crystal structures of Tegoprazan Polymorphs A and B were analyzed using laboratory-based X-ray diffraction (XRD) equipment and powdered samples. This approach was chosen for the following reasons: […]

| solubility ([1]; 15 °C, 15 °C) [µM] | solubility ([1]; 25 °C, 25 °C) [µM] | solid-state stability (changes by DSC and XRD) [2] | equilibrium concentration (solubility, S) ([1]; 15 °C) [µM] | equilibrium concentration (solubility, S) ([1]; 25 °C) [µM] | SMILES |
| --- | --- | --- | --- | --- | --- |
| 1250 (≈ 483 µg/mL) | 1440 (≈ 557 µg/mL) | No changes | – | – | Cc1nc2c(OC3CCOc4cc(F)cc(F)c43)cc(C(=O)N(C)C)cc2[nH]1 [Polymorph A, (S)-4-((5,7-difluorochroman-4-yl)oxy)-N,N,2-trimethyl-1H-benzo[d]imidazole-6-formamide] |
| – | – | phase transition to Polymorph A | 1476 | 2118 | Cc1nc2c(OC3CCOc4cc(F)cc(F)c43)cc(C(=O)N(C)C)cc2[nH]1 [Polymorph B, (S)-4-((5,7-difluorochroman-4-yl)oxy)-N,N,2-trimethyl-1H-benzo[d]imidazole-6-formamide] |
